Consider 37 molecules from PubChem BioAssay (NCI).

Common to all, as to test: growth of human tumour cells (NCI), 48 h
In assay [1] the test system is DMS 273 small cell lung.
Assay [2] concerns DMS 114 small cell lung.
Assay [3] deals with DLD-1 colon.
Assay [4] has as its system HOP-18 NSCLC.
Assay [5] has as its system RXF-631 renal.
Assay [6] relates to SNB-78 CNS.
Assay [7] has as its system KM20L2 colon.
The test system of assay [8] is XF 498 CNS.
The test system of assay [9] is MDA-N.

Molecules are shown by their SMILES. “And” between values parts separate entries of the source, which are not always exact repeats. Equal values may be shown once.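 How tested: cells in 96-well plates exposed to compound for 48 hours at five concentrations. GI50 is the concentration that inhibits growth by half. At the TGI there is no net growth.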 Where only a bound is given, the exact number is not on record here.

`Cn1c(N)nc(=O)c2c1N(C1OC(CO)C(O)C1O)CN2Cc1ccccc1` (stereo not drawn): the TGI in [1], in [2], in [3], in [4], in assay [5] and in [6] was over 100 µM throughout. The TGI in assay [7] and in assay [8] was over 100 µM each time.

Consider `NC1=NN(c2ccccc2)C(=O)C1C(=O)C(=O)Nc1nccs1` (stereo not drawn), for which the TGI in assay [1], in [2], in assay [3], in [4], in assay [5] and in assay [6] was over 100 µM each time. The molecule also came in with a TGI in [7] of over 100 µM.

As to `CC(=O)O[C@@]1(C)[C@@H](C)C(=O)O[C@@H]2CCN3CC=C(COC(=O)[C@]1(C)O)[C@H]23`, the TGI in [1], in assay [2], in [3] and in [7] was over 100 µM in each case.

As to `COc1ccc2c3c(c(C(=O)c4ccccc4)oc13)CCC2`, the TGI in [1], in assay [2], in [3], in [4], in [5] and in assay [6] was over 100 µM in each case. The TGI in assay [7] and in [8] was over 100 µM each time.

Take `C/C=C(\CCOS(=O)(=O)c1ccc(C)cc1)[Si](C)(C)C`: the TGI in assay [1], in assay [2], in [3], in [4], in assay [5] and in assay [6] was over 100 µM each time. Moreover, the TGI in assay [7] and in [8] was over 100 µM each time.

Take `Nc1n[n+](-c2ccccc2)no1`: the TGI was over 100 µM in [1]; 89.8 µM in assay [2]; over 100 µM in [3]; over 100 µM in [6]; over 100 µM in [7].

Take `Cc1[nH]c(=O)[nH]c1C(=O)c1ccc(-n2ccnc2)cc1`: the TGI in assay [1], in assay [2], in assay [3] and in assay [7] was over 100 µM throughout.

As to `CC1=C(O)/C(=C/C(C)CCC/C(C)=C/C=C/C(C)CCCc2ccoc2)OC1=O` (stereo not drawn), the TGI in assay [1] was over 100 µM; in assay [2] it was over 100 µM; in [3] it was over 100 µM; in assay [6], over 100 µM; in [7], over 100 µM; in assay [8], 34.6 µM.

Consider `CC(C(N)C(=O)NC(C(=O)O)C1OC(n2ccc(=O)[nH]c2=O)C(O)C1O)C(O)c1ccc(O)cn1` (stereo not drawn), for which, in assay [9], the TGI was over 100 µM.

On to `C[N+](C)(C)CC(=O)N/N=C(\C(=O)NC1=C(Cl)C(=O)c2ccccc2C1=O)C(C#N)c1nc(-c2ccc([N+](=O)[O-])cc2)cs1` (stereo not drawn), for which the TGI in assay [1] was found to be 33.7 µM; in assay [2], 9.62 µM; in assay [3], 29.5 µM; in assay [4] it was 18 µM; in [9] it was 3.2 µM; in [6] it was 48.2 µM. Moreover, the values for the TGI in assay [7] and in assay [8] were 42.5 µM and 21.1 µM, respectively.

`COc1cc(C2=N/C(=C/c3cccs3)C(=O)O2)cc(OC)c1OC` showed a TGI in [9] of over 100 µM.

Regarding `COC(=O)C(C(=O)C(=O)Nc1cccc([N+](=O)[O-])c1)c1nc2ccc([N+](=O)[O-])cc2[nH]c1=O` (stereo not drawn), the TGI in assay [1], in assay [2], in assay [3], in [4], in assay [5] and in assay [6] was over 100 µM each time. Further, the TGI in assay [7] and in assay [8] was over 100 µM in each case.

On to `O=C(O/N=C1/CCC/C1=C\c1ccccc1)c1ccc(Cl)c(Cl)c1`, for which the TGI in assay [1], in assay [2], in assay [3], in assay [4], in [5] and in assay [6] was over 100 µM in each case. In assay [7], this molecule had a TGI of over 100 µM.

Regarding `CC(=O)[CH-]C(=O)c1ccccc1.CC(=O)[CH-]C(=O)c1ccccc1.Cc1cc([O-])ccc1Cl.Cc1cc([O-])ccc1Cl.[Ti+4]`, the GI50 in assay [3] is 36.9 µM; in assay [4], 27.8 µM; in [7], 28.3 µM. Also, the figures for the TGI in assay [3], in assay [4] and in [7] were over 100 µM, over 100 µM and 84.9 µM, respectively.

Regarding `CCCCCCCCCC(=O)OCC1OC(n2cc(F)c(=O)[nH]c2=O)C(NC(=O)OCc2ccccc2)C(OC(=O)CCCCCCCCC)C1O` (stereo not drawn), the values for the TGI in assay [1] and in assay [2] were over 100 µM and 49.1 µM, respectively.

For the molecule `CC(C)=CCC/C(C)=C\CCC1(C)OC(=O)C2CC21` (stereo not drawn), in [9], the GI50 is > 100 µM and 23.8 µM; the TGI was > 100 µM and 85.1 µM.

In the case of `O=C1C2C(C(=O)N1c1ccccc1)C1([N+](=O)[O-])C=C3c4ccccc4N(C(=O)c4ccccc4)C32C2C(=O)N(c3ccccc3)C(=O)C21` (stereo not drawn), the TGI in assay [1], in assay [2], in assay [3], in [5], in [6] and in assay [8] was over 100 µM each time.

Turning to `COC(=O)C12OCC34C(CC5C(C)C6=CC(=O)OC6=CC5(C)C3C(O)C1O)OC(=O)C(O)C24` (stereo not drawn), the GI50 in assay [1] was 0.0707 µM; in assay [2], 0.0441 µM; in [4] it was 0.929 µM; in [6] it was 0.402 µM; in [7] it was 0.638 µM; in assay [8], 0.0609 µM and 0.344 µM. Further, the TGI in [1] is 0.528 µM and 0.359 µM; in [2], 0.527 µM and 4.35 µM; in [6] it was 8.31 µM; in [7], 30.9 µM; in assay [8], 0.291 µM and 1.93 µM.

Take `COc1ccc(/C=C2\CCC(CCN(C)C)(C3=CCCC3)C2=O)cc1Br` (stereo not drawn): the TGI came to 14.6 µM in [1]; 14.9 µM in assay [2]; 16.4 µM in assay [3]; 25.2 µM in assay [4]; 31.1 µM in assay [5]; 30.4 µM in assay [6]. Moreover, the figures for the TGI in assay [7] and in assay [8] were 3.56 µM and 8.72 µM, respectively.

As to `O=C(N/N=C1\C(=O)N(c2nccs2)C(=O)C(=O)C1c1nc2ccccc2s1)c1ccccc1O` (stereo not drawn), the TGI in assay [1] is over 100 µM; in assay [2] it was over 100 µM; in assay [3], over 100 µM; in assay [4], 77.4 µM; in [6], over 100 µM; in [7] it was over 100 µM. The same molecule came in with a TGI in assay [8] of over 100 µM.

For `CCc1cc(CCC(=O)Nc2ccccc2[N+](=O)[O-])[nH]c(=S)n1`, the TGI in assay [2], in assay [3], in [4], in assay [5], in assay [6] and in [7] was over 100 µM in each case.

On to `CN(C)CCNC(=O)Cn1cnc2cccc([N+](=O)[O-])c2c1=O`, for which, in [9], the TGI was over 100 µM.

For `CCOC(=O)C(CC/C=C\c1ccccc1)N1CCC[C@H]1C(=O)OC` (stereo partly drawn), the TGI in assay [1], in [2], in [3], in assay [4], in assay [6] and in assay [7] was over 100 µM throughout. For the same molecule, in [8], the TGI was over 100 µM.

For `C/C(=N\NC(=S)SCc1ccccc1)c1ccccn1`, in assay [9], the TGI is 15.3 µM.

As for `CCOC(=O)c1cnc2sc3ccc4ccccc4c3n2c1=O`, the TGI in [1], in assay [2], in assay [3], in assay [4], in assay [5] and in assay [6] was over 100 µM each time. The TGI in assay [7] is over 100 µM.

For the molecule `O=NNc1ccc(Sc2ccc(NN=O)cn2)nc1`, in assay [9], the TGI is over 100 µM.

Consider `O=C(CCn1[nH]c(=O)c(Cl)c(Cl)c1=O)NNC(=O)C[n+]1ccccc1`, for which the TGI in assay [1], in assay [2], in assay [3], in assay [4], in assay [5] and in [7] was over 100 µM each time. The molecule further showed a TGI in assay [8] of over 100 µM.

In the case of `Cc1cccc2c1CCC21OC(=O)c2c1ccc1ccccc21` (stereo not drawn), the TGI in [1] was 91.5 µM; in assay [2], 72.4 µM; in [3], over 100 µM; in assay [4], over 100 µM; in assay [5], 50.2 µM; in assay [7] it was over 100 µM.

Turning to `O=C1OC(=O)C2CCCC3CCCC1C32` (stereo not drawn), the TGI in [9] is over 100 µM.

With `CC1=C(/C=C/C(C)=C/C=C/C(C)=C/C(=O)O)C(C)(C)CCC1`, the TGI in assay [1], in [2], in assay [3], in [4], in assay [9] and in assay [7] was over 100 µM each time. Further, in [8], the TGI is over 100 µM.

For the molecule `O=C(CC(=O)c1cccc2ccccc12)C(=O)NC1C2CC3CC(C2)CC1C3` (stereo not drawn), the TGI in assay [1], in [2], in assay [3], in assay [4], in [5] and in assay [6] was over 100 µM throughout. Besides, the TGI in assay [7] and in [8] was over 100 µM throughout.

On to `CSc1snc2sc3c(Cl)nnnc3c12`, for which the TGI in assay [1] was found to be 23.9 µM; in assay [2] it was 29 µM; in [3], 22.7 µM; in [4] it was 33.9 µM; in [5], 38.4 µM; in assay [6], 38.1 µM. Moreover, the TGI in [7] came out at 30.9 µM; in assay [8], 27.4 µM.

Take `O=C1C2CCN(CC2)C1(CO)CO`: the TGI in assay [9] is over 100 µM.

In [9], `CN(Cc1cc(Br)cc(Br)c1O)Cc1c(O)ccc2ccccc12` came in with a TGI of 39.9 µM.

On to `Cc1cccc(C(C)(C)C)c1NC(=O)CCc1nc(=S)[nH][nH]1`, for which the TGI in [1], in assay [2], in assay [3], in assay [5], in [6] and in assay [7] was over 100 µM in each case. Besides, the TGI in assay [8] was over 100 µM.

Regarding `CCCCCCCCCCCCCCCCCCOCC(CCP(=O)(CP(=O)(O)O)Oc1ccccc1)OCCCCCCCCCCCCCCCCCC` (stereo not drawn), in assay [9], the TGI was over 100 µM.

Turning to `COc1ccc2oc(C(=O)O)c3c2c1CCC3CCC(=O)O` (stereo not drawn), the TGI in assay [1], in assay [2], in assay [3], in [5], in assay [6] and in assay [8] was over 100 µM in each case.
